Results from patent EP4678638A1, “NEW E3 UBIQUITIN LIGASE LIGAND, PROTEIN DEGRADATION AGENT AND USE THEREOF” (priority 2023, dated 2024).
pIC50: −log10 of the molar value. Read-outs that look alike come from different tables or passages of the source. Each block holds one compound with its values, some of them ahead of it.

How the values were obtained:
MV-4-11 = assay: CCK-8 proliferation, MV-4-11; type: cell-based, Human; conditions: Homo sapiens, MV4-11; for IC50: Table B10, compounds designed based on the IRAK4 inhibitors, MV-4-11 cells, read-out: Inhibitory activity (IC50, nM) on tumor cell proliferation, MV-4-11; for pIC50: CCK-8, 72 or 96 hours, read-out: Inhibitory activity (IC50) on tumor cell proliferation, MV-4-11
Method: The tumor cells used herein were cultured in a cell culture medium listed in table A1 at 37°C in an incubator with 5% CO2. Prior to experimentation, all cell lines used were correctly identified by STR profiling, and tested negative for mycoplasma contamination using a mycoplasma detection kit through routine screenings. Table A1. Tumor cells and cell culture medium used in the present disclosure
IC50 values of the compounds of the present disclosure (including the compounds in Table 1, and compounds of examples) were measured using the Meilun Cell Counting Kit-8 kit from Dalian Meilun Biotech Co., Ltd. Assay details are as follows: tumor cells were seeded in a 96-well plate at a density listed in Table A2. After 24h, 100 µL of the inoculated cells were treated with 0.5µL of the compounds of the present disclosure (including the compounds in Tables 1 and 2, and compounds of examples) at 10 different successively decreasing concentrations (starting at the highest concentration of 10µM; 5-fold serial dilutions). After the cells were treated with the compounds of the present disclosure for a period of time, the cell viability detection reagent was added to the culture medium for cell viability assessment according to the instructions provided with the CCK-8 kit. […] The growth inhibition of the compounds of the present disclosure on cells was plotted by Prism Graphpad software, and the IC50 values of the compounds of the present disclosure were calculated therefrom. […] Seeding protocol and treatment time for tumor cells

SR = assay: CCK-8 proliferation, SR; type: cell-based, Human; conditions: Homo sapiens; Table B10, compounds designed based on the IRAK4 inhibitors; SR cells; read-out: Inhibitory activity (IC50, nM) on tumor cell proliferation, SR
Procedure, shortened: (§1)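 Tumor cells were cultured at 37°C with 5% CO2, seeded, and after 24h treated with compounds at 10 concentrations starting at 10µM (5-fold serial dilutions).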

WEE1 = target: T1, WEE1 (Homo sapiens, UniProt P30291+Q96SW2); assay: Western blot degradation of WEE1 (hPBMC); type: cell-based; conditions: Table D16
T1 construct: evaluate the effects of the compounds of the present disclosure on the expression of target proteins in cells; endogenous in cells; host or cells: hPBMC
T1 sequence (P30291 whole entry): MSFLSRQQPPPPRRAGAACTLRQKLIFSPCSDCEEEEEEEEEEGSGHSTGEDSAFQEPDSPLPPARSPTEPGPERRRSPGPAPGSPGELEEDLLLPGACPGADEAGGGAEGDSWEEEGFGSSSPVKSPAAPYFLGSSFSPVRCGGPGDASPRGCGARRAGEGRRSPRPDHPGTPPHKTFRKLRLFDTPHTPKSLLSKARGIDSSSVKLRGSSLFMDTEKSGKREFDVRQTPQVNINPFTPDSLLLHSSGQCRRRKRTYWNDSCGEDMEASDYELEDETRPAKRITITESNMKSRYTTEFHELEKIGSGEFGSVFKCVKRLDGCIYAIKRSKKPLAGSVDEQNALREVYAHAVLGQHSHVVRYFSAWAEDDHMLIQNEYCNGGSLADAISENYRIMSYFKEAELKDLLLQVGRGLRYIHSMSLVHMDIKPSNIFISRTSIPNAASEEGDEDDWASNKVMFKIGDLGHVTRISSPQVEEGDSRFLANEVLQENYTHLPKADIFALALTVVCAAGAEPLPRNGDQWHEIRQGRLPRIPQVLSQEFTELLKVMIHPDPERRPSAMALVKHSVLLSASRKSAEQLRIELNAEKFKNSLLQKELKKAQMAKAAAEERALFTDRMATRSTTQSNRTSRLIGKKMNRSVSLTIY
T1 sequence (Q96SW2 whole entry): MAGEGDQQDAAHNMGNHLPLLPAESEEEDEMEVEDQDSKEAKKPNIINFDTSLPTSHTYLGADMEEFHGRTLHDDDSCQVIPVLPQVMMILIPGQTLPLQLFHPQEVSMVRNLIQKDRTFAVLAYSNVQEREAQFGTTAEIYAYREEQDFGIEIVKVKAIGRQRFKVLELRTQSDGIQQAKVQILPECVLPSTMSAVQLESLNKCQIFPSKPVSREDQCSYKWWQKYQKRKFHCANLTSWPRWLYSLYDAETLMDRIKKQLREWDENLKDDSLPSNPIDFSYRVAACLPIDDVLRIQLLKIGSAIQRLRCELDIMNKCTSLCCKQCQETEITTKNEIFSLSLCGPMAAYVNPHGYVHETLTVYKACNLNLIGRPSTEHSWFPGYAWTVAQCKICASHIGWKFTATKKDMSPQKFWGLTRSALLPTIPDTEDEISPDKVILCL
T1 sequence (Q16531 whole entry partner): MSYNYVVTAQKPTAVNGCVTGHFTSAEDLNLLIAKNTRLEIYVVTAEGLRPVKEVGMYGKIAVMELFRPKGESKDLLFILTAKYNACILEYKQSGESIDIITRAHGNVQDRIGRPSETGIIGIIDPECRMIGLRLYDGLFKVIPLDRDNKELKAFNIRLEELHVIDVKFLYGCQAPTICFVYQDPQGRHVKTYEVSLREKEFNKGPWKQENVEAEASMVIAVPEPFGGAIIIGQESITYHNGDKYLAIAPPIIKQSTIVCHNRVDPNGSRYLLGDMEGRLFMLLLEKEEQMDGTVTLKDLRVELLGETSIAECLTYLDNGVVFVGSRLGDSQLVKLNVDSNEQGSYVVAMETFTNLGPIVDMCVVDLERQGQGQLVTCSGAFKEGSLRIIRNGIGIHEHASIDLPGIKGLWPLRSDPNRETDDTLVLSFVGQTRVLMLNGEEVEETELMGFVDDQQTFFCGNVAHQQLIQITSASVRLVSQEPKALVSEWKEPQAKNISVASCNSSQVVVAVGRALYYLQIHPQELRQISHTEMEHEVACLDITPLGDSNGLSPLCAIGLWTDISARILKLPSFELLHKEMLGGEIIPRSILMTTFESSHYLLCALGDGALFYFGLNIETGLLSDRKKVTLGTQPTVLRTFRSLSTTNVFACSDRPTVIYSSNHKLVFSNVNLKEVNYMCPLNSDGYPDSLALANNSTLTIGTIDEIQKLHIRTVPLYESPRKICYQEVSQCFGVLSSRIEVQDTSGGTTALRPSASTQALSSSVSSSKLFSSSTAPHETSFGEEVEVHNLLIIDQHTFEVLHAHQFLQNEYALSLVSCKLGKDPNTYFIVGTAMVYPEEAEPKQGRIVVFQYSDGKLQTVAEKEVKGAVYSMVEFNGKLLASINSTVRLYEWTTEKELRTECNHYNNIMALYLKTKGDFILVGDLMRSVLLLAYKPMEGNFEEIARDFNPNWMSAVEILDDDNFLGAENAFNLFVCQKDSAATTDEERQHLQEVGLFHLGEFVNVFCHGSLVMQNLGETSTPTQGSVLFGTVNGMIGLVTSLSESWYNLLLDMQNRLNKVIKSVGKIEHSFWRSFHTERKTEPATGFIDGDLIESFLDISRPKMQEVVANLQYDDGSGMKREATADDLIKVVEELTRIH
Procedure, shortened: (§2)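 After compound exposure, cells were harvested and lysates run on SDS-PAGE, transferred to nitrocellulose and probed with antibodies. Remaining target (%) was computed from band grayscale relative to an internal control protein and normalised; degradation (%) was 100% minus that.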

IKZF1 = target: T2, IKZF1 (Homo sapiens, UniProt Q13422+Q96SW2); assay: Western blot degradation of IKZF1 (hPBMC); type: cell-based; conditions: Table D16
T2 construct: evaluate the effects of the compounds of the present disclosure on the expression of target proteins in cells; endogenous in cells; host or cells: hPBMC
T2 sequence (Q13422 whole entry): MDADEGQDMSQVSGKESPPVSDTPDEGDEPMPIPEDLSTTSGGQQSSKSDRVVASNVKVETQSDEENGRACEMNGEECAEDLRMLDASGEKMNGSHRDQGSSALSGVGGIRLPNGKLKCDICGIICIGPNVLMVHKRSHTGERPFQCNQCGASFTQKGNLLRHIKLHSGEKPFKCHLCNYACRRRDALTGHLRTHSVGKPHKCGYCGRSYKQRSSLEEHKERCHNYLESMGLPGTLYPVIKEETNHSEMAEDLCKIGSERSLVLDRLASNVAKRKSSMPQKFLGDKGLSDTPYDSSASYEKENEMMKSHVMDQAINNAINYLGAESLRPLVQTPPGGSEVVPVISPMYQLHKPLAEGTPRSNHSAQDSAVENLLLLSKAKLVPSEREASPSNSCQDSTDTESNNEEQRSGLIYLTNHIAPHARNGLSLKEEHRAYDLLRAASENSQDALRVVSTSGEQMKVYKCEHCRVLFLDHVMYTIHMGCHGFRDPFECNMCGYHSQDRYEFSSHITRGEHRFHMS
T2 sequence (Q96SW2 whole entry): as the sequence (Q96SW2 whole entry) above
T2 sequence (Q16531 whole entry partner): as the sequence (Q16531 whole entry partner) above
Procedure, shortened: as §2

CK1a = target: T3, CK1a (Homo sapiens, UniProt P48729+Q96SW2); assay: Western blot degradation of CK1a (hPBMC); type: cell-based; conditions: Table D16
T3 construct: evaluate the effects of the compounds of the present disclosure on the expression of target proteins in cells; endogenous in cells; host or cells: hPBMC
Procedure, shortened: as §2

IKZF2 = target: T4, IKZF2 (Homo sapiens, UniProt Q96SW2+Q9UKS7); assay: Western blot degradation of IKZF2 (hPBMC); type: cell-based; conditions: Table D16
T4 construct: evaluate the effects of the compounds of the present disclosure on the expression of target proteins in cells; endogenous in cells; host or cells: hPBMC
T4 sequence (Q9UKS7 whole entry): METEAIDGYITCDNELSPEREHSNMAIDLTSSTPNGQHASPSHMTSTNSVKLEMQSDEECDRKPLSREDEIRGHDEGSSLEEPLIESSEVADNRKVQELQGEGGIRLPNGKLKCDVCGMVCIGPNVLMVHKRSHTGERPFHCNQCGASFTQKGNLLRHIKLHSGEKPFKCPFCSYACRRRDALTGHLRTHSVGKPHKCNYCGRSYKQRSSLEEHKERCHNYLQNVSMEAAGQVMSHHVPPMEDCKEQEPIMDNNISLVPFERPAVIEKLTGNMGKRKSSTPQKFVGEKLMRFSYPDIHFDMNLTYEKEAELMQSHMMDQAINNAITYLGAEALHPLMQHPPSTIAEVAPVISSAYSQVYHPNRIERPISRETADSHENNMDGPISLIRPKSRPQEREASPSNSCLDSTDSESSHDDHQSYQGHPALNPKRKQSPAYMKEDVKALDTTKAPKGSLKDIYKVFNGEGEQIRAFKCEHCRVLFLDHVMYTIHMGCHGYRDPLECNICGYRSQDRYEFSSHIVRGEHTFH
T4 sequence (Q96SW2 whole entry): as the sequence (Q96SW2 whole entry) above
T4 sequence (Q16531 whole entry partner): as the sequence (Q16531 whole entry partner) above
Procedure, shortened: as §2

MCF7 = assay: CCK-8 proliferation, MCF7 (MCF-7); type: cell-based; conditions: Homo sapiens, MCF7; CCK-8; read-out: Inhibitory activity (IC50) on tumor cell proliferation, MCF-7
Procedure, shortened: as §1

MM.1S = assay: CCK-8 proliferation, MM.1S; type: cell-based; conditions: Homo sapiens, MM1.S; CCK-8; 72 hours; read-out: Inhibitory activity (IC50) on tumor cell proliferation, MM1S
Procedure, shortened: as §1

GSPT1 = target: T5, GSPT1 (Homo sapiens, UniProt P15170+Q96SW2); assay: Western blot degradation of GSPT1 (hPBMC); type: cell-based; conditions: Table D16
T5 construct: evaluate the effects of the compounds of the present disclosure on the expression of target proteins in cells; endogenous in cells; host or cells: hPBMC
T5 sequence (P15170 whole entry): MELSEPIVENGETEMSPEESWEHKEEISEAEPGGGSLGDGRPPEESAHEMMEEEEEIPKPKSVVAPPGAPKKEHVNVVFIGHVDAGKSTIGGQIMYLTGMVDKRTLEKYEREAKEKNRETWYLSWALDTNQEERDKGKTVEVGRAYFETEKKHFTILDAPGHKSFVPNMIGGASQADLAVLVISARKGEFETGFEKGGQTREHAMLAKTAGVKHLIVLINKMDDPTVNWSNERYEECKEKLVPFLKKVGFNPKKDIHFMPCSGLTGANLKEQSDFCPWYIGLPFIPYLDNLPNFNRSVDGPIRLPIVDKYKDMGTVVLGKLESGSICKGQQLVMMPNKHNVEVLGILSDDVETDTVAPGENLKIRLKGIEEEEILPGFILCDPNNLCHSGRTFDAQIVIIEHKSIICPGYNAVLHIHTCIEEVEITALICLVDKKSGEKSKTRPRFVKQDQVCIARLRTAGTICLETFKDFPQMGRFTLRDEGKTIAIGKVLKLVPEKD
T5 sequence (Q96SW2 whole entry): as the sequence (Q96SW2 whole entry) above
T5 sequence (Q16531 whole entry partner): as the sequence (Q16531 whole entry partner) above
Procedure, shortened: as §2

IKZF3 = target: T6, IKZF3 (Homo sapiens, UniProt Q96SW2+Q9UKT9); assay: Western blot degradation of IKZF3 (hPBMC); type: cell-based; conditions: Table D16
T6 construct: evaluate the effects of the compounds of the present disclosure on the expression of target proteins in cells; endogenous in cells; host or cells: hPBMC
T6 sequence (Q9UKT9 whole entry): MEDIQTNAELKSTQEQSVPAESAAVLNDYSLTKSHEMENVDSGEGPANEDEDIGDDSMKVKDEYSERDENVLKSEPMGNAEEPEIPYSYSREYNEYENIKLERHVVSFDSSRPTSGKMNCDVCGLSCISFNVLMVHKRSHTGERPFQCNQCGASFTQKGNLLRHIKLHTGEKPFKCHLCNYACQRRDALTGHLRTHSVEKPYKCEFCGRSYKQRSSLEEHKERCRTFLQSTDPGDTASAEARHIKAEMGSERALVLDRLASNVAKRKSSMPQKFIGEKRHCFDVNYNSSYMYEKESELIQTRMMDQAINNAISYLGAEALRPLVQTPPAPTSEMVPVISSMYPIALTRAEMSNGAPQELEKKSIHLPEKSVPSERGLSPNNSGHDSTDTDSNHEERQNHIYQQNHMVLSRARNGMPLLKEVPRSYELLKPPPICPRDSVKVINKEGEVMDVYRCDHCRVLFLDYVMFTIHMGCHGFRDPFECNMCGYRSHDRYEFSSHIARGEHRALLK
T6 sequence (Q96SW2 whole entry): as the sequence (Q96SW2 whole entry) above
T6 sequence (Q16531 whole entry partner): as the sequence (Q16531 whole entry partner) above
Procedure, shortened: as §2

IC50 (MV-4-11): 100 to 500 nM
SMILES: O=C1CCC(c2ccc(CN3CCC(n4cc(NC(=O)c5cnn6ccc(N7CCOCC7)nc56)c(C(F)F)n4)CC3)cc2)C(=O)N1 (stereo not shown) [GT-03813, N-(3-(difluoromethyl)-1-(1-(4-(2,6-dioxopiperidin-3-yl)benzyl)piperidin-4-yl)-1H-pyrazol-4-yl)-5-morpholinopyrazolo[1,5-a]pyrimidine-3-carboxamide]
IC50 (SR): 100 to 500 nM

IC50 (MV-4-11): 100 to 500 nM
SMILES: O=C1CCN(c2ccc(CN3CCC(n4cc(NC(=O)c5cnn6ccc(N7CCOCC7)nc56)c(C(F)F)n4)CC3)cc2F)C(=O)N1 [GT-03814, N-(3-(difluoromethyl)-1-(1-(4-(2,4-dioxotetrahydropyrimidin-1(2H)-yl)-3-fluorobenzyl)piperidin-4-yl)-1H-pyrazol-4-yl)-5-morpholinopyrazolo[1,5-a]pyrimidine-3-carboxamide]

IC50 (MV-4-11): 50 to 100 nM
SMILES: Cc1cc(-c2nc(C(=O)Nc3cc4oc(N5CCN(Cc6ccc(C7CCC(=O)NC7=O)cc6)CC5)nc4nc3N3CC[C@@H](O)C3)co2)ccn1 (stereo partly drawn) [GT-03846, N-(2-(4-(4-(2,6-dioxopiperidin-3-yl)benzyl)piperazin-1-yl)-5-((R)-3-hydroxypyrrolidin-1-yl)oxazolo[4,5-b]pyridin-6-yl)-2-(2-methylpyridin-4-yl)oxazole-4-carboxamide]

IC50 (MV-4-11): 50 to 100 nM
SMILES: Cc1cc(-c2nc(C(=O)Nc3cc4oc(N5CCN(Cc6ccc(C7CCC(=O)NC7=O)c(F)c6)CC5)nc4nc3N3CC[C@@H](O)C3)co2)ccn1 (stereo partly drawn) [GT-03847, N-(2-(4-(4-(2,6-dioxopiperidin-3-yl)-3-fluorobenzyl)piperazin-1-yl)-5-((R)-3-hydroxypyrrolidin-1-yl)oxazolo[4,5-b]pyridin-6-yl)-2-(2-methylpyridin-4-yl)oxazole-4-carboxamide]

pIC50 (MV-4-11): 6.00 to 6.30
SMILES: Nc1nc(Nc2ccc(S(=O)(=O)N3CCN(Cc4cccc(N5CCC(=O)NC5=O)c4)CC3)cc2)nn1C(=O)c1c(F)cccc1F [GT-06752, 1-(3-((4-((4-((5-amino-1-(2,6-difluorobenzoyl)-1H-1,2,4-triazol-3-yl)amino)phenyl)sulfonyl)piperazin-1-yl)methyl)phenyl)dihydropyrimidine-2,4(1H,3H)-dione]

pIC50 (MV-4-11): 6.30 to 7.00
SMILES: Nc1nc(Nc2ccc(S(=O)(=O)N3CCN(Cc4ccc(N5CCC(=O)NC5=O)cn4)CC3)cc2)nn1C(=O)c1c(F)cccc1F [GT-06753, 1-(6-((4-((4-((5-amino-1-(2,6-difluorobenzoyl)-1H-1,2,4-triazol-3-yl)amino)phenyl)sulfonyl)piperazin-1-yl)methyl)pyridin-3-yl)dihydropyrimidine-2,4(1H,3H)-dione]

pIC50 (MV-4-11): 6.30 to 7.00
SMILES: Cc1cc(S(=O)(=O)N2CCN(Cc3ccc(C4CCC(=O)NC4=O)cc3)CC2)ccc1Nc1ncc(Br)c(Nc2cccc(F)c2C(N)=O)n1 (stereo not shown) [GT-06830, 2-((5-bromo-2-((4-((4-(4-(2,6-dioxopiperidin-3-yl)benzyl)piperazin-1-yl)sulfonyl)-2-methylphenyl)amino)pyrimidin-4-yl)amino)-6-fluorobenzamide]

pIC50 (MV-4-11): 7.00 to 7.30
SMILES: Cc1cc(S(=O)(=O)N2CCN(Cc3ccc(N4CCC(=O)NC4=O)cn3)CC2)ccc1Nc1ncc(Br)c(Nc2cccc(F)c2C(N)=O)n1 [GT-06833, 2-((5-bromo-2-((4-((4-((5-(2,4-dioxotetrahydropyrimidin-1(2H)-yl)pyridin-2-yl)methyl)piperazin-1-yl)sulfonyl)-2-methylphenyl)amino)pyrimidin-4-yl)amino)-6-fluorobenzamide]

pIC50 (MV-4-11): 6.30 to 7.00
SMILES: Cc1ccsc1C(=O)n1nc(Nc2ccc(S(=O)(=O)N3CCN(Cc4ccc(C5CCC(=O)NC5=O)cc4)CC3)cc2)nc1N (stereo not shown) [GT-06854, 3-(4-((4-((4-((5-amino-1-(3-methylthiophene-2-carbonyl)-1H-1,2,4-triazol-3-yl)amino)phenyl)sulfonyl)piperazin-1-yl)methyl)phenyl)piperidine-2,6-dione]

pIC50 (MV-4-11): 6.00 to 6.30
SMILES: Cc1ccsc1C(=O)n1nc(Nc2ccc(S(=O)(=O)N3CCN(Cc4ccc(C5CCC(=O)NC5=O)c(F)c4)CC3)cc2)nc1N (stereo not shown) [GT-06855, 3-(4-((4-((4-((5-amino-1-(3-methylthiophene-2-carbonyl)-1H-1,2,4-triazol-3-yl)amino)phenyl)sulfonyl)piperazin-1-yl)methyl)-2-fluorophenyl)piperidine-2,6-dione]

pIC50 (MV-4-11): 6.30 to 7.00
SMILES: Cc1ccsc1C(=O)n1nc(Nc2ccc(S(=O)(=O)N3CCN(Cc4ccc(N5CCC(=O)NC5=O)cc4F)CC3)cc2)nc1N [GT-06858, 1-(4-((4-((4-((5-amino-1-(3-methylthiophene-2-carbonyl)-1H-1,2,4-triazol-3-yl)amino)phenyl)sulfonyl)piperazin-1-yl)methyl)-3-fluorophenyl)dihydropyrimidine-2,4(1H,3H)-dione]

pIC50 (MV-4-11): 6.30 to 7.00
SMILES: Cc1ccsc1C(=O)n1nc(Nc2ccc(S(=O)(=O)N3CCN(Cc4cccc(N5CCC(=O)NC5=O)c4)CC3)cc2)nc1N [GT-06859, 1-(3-((4-((4-((5-amino-1-(3-methylthiophene-2-carbonyl)-1H-1,2,4-triazol-3-yl)amino)phenyl)sulfonyl)piperazin-1-yl)methyl)phenyl)dihydropyrimidine-2,4(1H,3H)-dione]

pIC50 (MV-4-11): 6.30 to 7.00
SMILES: Cc1ccsc1C(=O)n1nc(Nc2ccc(S(=O)(=O)N3CCN(Cc4ccc(N5CCC(=O)NC5=O)cn4)CC3)cc2)nc1N [GT-06860, 1-(6-((4-((4-((5-amino-1-(3-methylthiophene-2-carbonyl)-1H-1,2,4-triazol-3-yl)amino)phenyl)sulfonyl)piperazin-1-yl)methyl)pyridin-3-yl)dihydropyrimidine-2,4(1H,3H)-dione]

pIC50 (MCF7): 5.30 to 6.00 | pIC50 (MM.1S): 5.30 to 6.00
SMILES: O=C1CCN(c2cncc(CCl)c2)C(=O)N1 [GT-07047, 1-(5-(Chloromethyl)pyridin-3-yl)dihydropyrimidine-2,4(1H,3H)-dione]
Degradation of substrate protein WEE1 (substrate protein remaining %) (WEE1): B (B is defined as substrate protein remaining % > 80%) | Degradation of substrate protein IKZF1 (substrate protein remaining %) (IKZF1): A (A is defined as 0% ≤ substrate protein remaining % ≤ 80%) | Degradation of substrate protein CKla (substrate protein remaining %) (CK1a): A (A is defined as 0% ≤ substrate protein remaining % ≤ 80%) | Degradation of substrate protein IKZF2 (substrate protein remaining %) (IKZF2): A (A is defined as 0% ≤ substrate protein remaining % ≤ 80%) | Degradation of substrate protein GSPT1 (substrate protein remaining %) (GSPT1): B (B is defined as substrate protein remaining % > 80%) | Degradation of substrate protein IKZF3 (substrate protein remaining %) (IKZF3): A (A is defined as 0% ≤ substrate protein remaining % ≤ 80%)

pIC50 (MCF7): 5.30 to 6.00 | pIC50 (MM.1S): 5.30 to 6.00
SMILES: O=C1CCC(c2cc(CO)ccn2)C(=O)N1 (stereo not shown) [GT-07050, 3-(4-(Hydroxymethyl)pyridin-2-yl)piperidine-2,6-dione]
Degradation of substrate protein WEE1 (substrate protein remaining %) (WEE1): B (B is defined as substrate protein remaining % > 80%) | Degradation of substrate protein IKZF1 (substrate protein remaining %) (IKZF1): A (A is defined as 0% ≤ substrate protein remaining % ≤ 80%) | Degradation of substrate protein CKla (substrate protein remaining %) (CK1a): A (A is defined as 0% ≤ substrate protein remaining % ≤ 80%) | Degradation of substrate protein IKZF2 (substrate protein remaining %) (IKZF2): B (B is defined as substrate protein remaining % > 80%) | Degradation of substrate protein GSPT1 (substrate protein remaining %) (GSPT1): A (A is defined as 0% ≤ substrate protein remaining % ≤ 80%) | Degradation of substrate protein IKZF3 (substrate protein remaining %) (IKZF3): A (A is defined as 0% ≤ substrate protein remaining % ≤ 80%)

pIC50 (MM.1S): 5.30 to 6.00
SMILES: O=C1CCC(c2ccc(CO)nn2)C(=O)N1 (stereo not shown) [GT-07636, 3-(6-(Hydroxymethyl)pyridazin-3-yl)piperidine-2,6-dione]
Degradation of substrate protein WEE1 (substrate protein remaining %) (WEE1): B (B is defined as substrate protein remaining % > 80%) | Degradation of substrate protein IKZF1 (substrate protein remaining %) (IKZF1): A (A is defined as 0% ≤ substrate protein remaining % ≤ 80%) | Degradation of substrate protein CKla (substrate protein remaining %) (CK1a): B (B is defined as substrate protein remaining % > 80%) | Degradation of substrate protein IKZF2 (substrate protein remaining %) (IKZF2): A (A is defined as 0% ≤ substrate protein remaining % ≤ 80%) | Degradation of substrate protein GSPT1 (substrate protein remaining %) (GSPT1): A (A is defined as 0% ≤ substrate protein remaining % ≤ 80%) | Degradation of substrate protein IKZF3 (substrate protein remaining %) (IKZF3): A (A is defined as 0% ≤ substrate protein remaining % ≤ 80%)
